Measurements from publication PMC9034162, “Development of pyrazoline-based derivatives as aminopeptidase N inhibitors to overcome cancer invasion and metastasis” (RSC Advances, 2021).

Experiments:
porcine APN = target: T1, porcine APN (Sus scrofa, UniProt P15145); assay: Enzymatic inhibition assay against APN in vitro; assay type: biochemical; details: for IC50: soluble APN from porcine kidney microsomes, L-Leu-p-nitroanilide substrate, pH 7.2, 37 °C 30 min, mean ± SD, triplicate
T1 construct: soluble APN from porcine kidney microsomes (Biocol) was used as enzyme; purchased Biocol; host or cells: porcine kidney microsomes (tissue-derived)
T1 sequence (P15145 1-963): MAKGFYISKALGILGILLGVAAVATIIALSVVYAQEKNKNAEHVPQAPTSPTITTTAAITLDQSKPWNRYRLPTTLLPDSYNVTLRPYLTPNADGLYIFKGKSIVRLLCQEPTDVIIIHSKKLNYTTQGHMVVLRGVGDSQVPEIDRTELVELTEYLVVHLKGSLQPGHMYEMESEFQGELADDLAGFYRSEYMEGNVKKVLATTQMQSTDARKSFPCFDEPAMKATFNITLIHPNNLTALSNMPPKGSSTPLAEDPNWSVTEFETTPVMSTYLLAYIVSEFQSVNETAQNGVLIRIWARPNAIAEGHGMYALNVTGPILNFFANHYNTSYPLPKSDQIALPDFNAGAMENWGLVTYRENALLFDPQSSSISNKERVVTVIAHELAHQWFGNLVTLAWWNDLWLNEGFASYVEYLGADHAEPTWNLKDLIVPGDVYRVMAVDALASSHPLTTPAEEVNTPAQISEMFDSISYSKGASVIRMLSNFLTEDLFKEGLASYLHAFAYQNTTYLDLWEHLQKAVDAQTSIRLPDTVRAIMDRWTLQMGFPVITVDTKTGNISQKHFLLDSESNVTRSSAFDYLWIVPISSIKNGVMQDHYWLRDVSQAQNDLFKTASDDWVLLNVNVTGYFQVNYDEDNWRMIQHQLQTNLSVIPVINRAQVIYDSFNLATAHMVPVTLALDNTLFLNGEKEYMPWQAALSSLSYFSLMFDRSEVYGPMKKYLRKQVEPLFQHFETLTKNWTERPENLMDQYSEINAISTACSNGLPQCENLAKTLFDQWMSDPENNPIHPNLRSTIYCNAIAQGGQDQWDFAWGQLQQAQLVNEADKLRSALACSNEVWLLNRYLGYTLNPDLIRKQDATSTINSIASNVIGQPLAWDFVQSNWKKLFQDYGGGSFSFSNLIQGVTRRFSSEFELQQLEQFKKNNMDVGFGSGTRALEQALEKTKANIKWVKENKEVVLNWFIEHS
Method: In the enzymatic inhibition assay against APN in vitro, L-Leu-p-nitroanilide was used as substrate and soluble APN from porcine kidney microsomes (Biocol) was used as enzyme. 50 mM PBS with pH 7.2 was used as buffer solution. Briefly, inhibitors (40 μL), PBS (145 μL), substrate (5 μL, 16 mmol L^−1) and APN solution (10 μL, 0.15 IU mL^−1) were added into 96-well plates. The mixture was incubated at 37 °C for 30 min. The optical density resulting from the hydrolysis product p-nitroanilide was measured at 405 nm with a plate reader (Varioskan, Thermo, USA).

[1] = Body weight monitoring in H22 pulmonary metastasis model; assay type: in vivo; details: 60 mg kg^−1 d^−1 intraperitoneally for 12 days, Kunming mice, weights every two days
Method: (§1) All animal procedures were performed in accordance with the Guidelines for Care and Use of Laboratory Animals of Shandong University and approved by the Animal Ethical and Welfare Committee (AEWC, China). The mice hepatoma H22 cell line was our laboratory-owned and 6 week old male Kunming mice were purchased from Center for New Drugs Evaluation of Shandong University, China. Firstly, H22 cells suspension (0.1 mL, 7.5 × 10^7 mL^−1) was injected via tail vein to establish a mice H22 pulmonary metastasis model. Subsequently, the mice were randomly divided into treatment and control groups. […] The body weights were monitored every two days. Finally, the mice were sacrificed and the lungs were removed and fixed in Bouin's solution. After 24 h, the metastasis nodes on the surface of pulmonary lobes were counted.

HepG2 = assay: Anti-proliferation assay (MTT); assay type: cell-based; details: Homo sapiens, 48 h, mean ± SD, triplicate, read-out: IC50 anti-proliferative, HepG2
Method: (§2) The anti-proliferative activities of the selected compounds were evaluated using the MTT method. All the tumor cell lines were cultured in RPMI-1640 medium with 10% FBS at 37 °C in 5% CO2 humidified incubator. Firstly, cells (100 μL) were plated in 96-well plates and allowed to grow for 4 h. Then different concentrations of inhibitors (100 μL) were added. After incubation for 48 h, MTT solution (20 μL per well, 5 mg mL^−1) was added and the mixture was incubated for additional 4 h. Subsequently, the medium were poured off and DMSO (200 μL) was added to dissolve the formed formazan. After shaking for 15 min, the optical density values were measured using a plate reader at 570 nm (Varioskan, Thermo, USA).

PLC/PRF/5 = assay: Anti-proliferation assay (MTT); assay type: cell-based; details: Homo sapiens, 48 h, mean ± SD, triplicate, read-out: IC50 anti-proliferative, PLC/PRF/5
Method: as §2

ES-2 = assay: Anti-proliferation assay (MTT); assay type: cell-based; details: Homo sapiens, 48 h, mean ± SD, triplicate, read-out: IC50 anti-proliferative, ES-2
Method: as §2

PC-3 = assay: Anti-proliferation assay (MTT); assay type: cell-based; details: Homo sapiens, 48 h, mean ± SD, triplicate, read-out: IC50 anti-proliferative, PC-3
Method: as §2

K562 = assay: Anti-proliferation assay (MTT); assay type: cell-based; details: Homo sapiens, 48 h, mean ± SD, triplicate, read-out: IC50 anti-proliferative, K562
Method: as §2

U937 = assay: Anti-proliferation assay (MTT); assay type: cell-based; details: Homo sapiens, U-937, 48 h, mean ± SD, triplicate, read-out: IC50 anti-proliferative, U937
Method: as §2

mice H22 hepatoma cells = assay: In vivo anti-metastatic assay, mice H22 hepatoma cell pulmonary metastasis model; details: 60 mg kg^−1 d^−1 intraperitoneally for 12 days, Kunming mice, H22 cells via tail vein
Method: as §1

ES-2 cells invasion = assay: In vitro anti-invasion assay (matrigel transwell); assay type: cell-based
Method: The carbonate membrane coated with matrigel in the upper chamber of transwell insert (BD BioCoat™ Matrigel™ Invasion Chambers) was rehydrated with RPMI-1640 culture medium (500 μL) containing 1% FBS for 2 h. After removing the medium, the upper and lower chambers were added the RPMI-1640 culture medium (100 μL) with 1% FBS containing the tested compounds and the RPMI-1640 culture medium (750 μL) with 10% FBS, respectively. Then, ES-2 cells suspending in the RPMI-1640 culture medium containing 1% FBS (400 μL, 2.5 × 10^5 cells per mL) were added into the upper chambers. The system was placed at 37 °C in 5% CO2 for 8 h. The ES-2 cells could invade the matrigel and migrate from the upper surface of the carbonate membrane into the lower surface of that. ES-2 cells on the upper surface of the carbonate membrane were erased by cotton swabs. Then, ES-2 cells on the lower surface were fixed with methanol, stained with 0.1% crystal violet, of which the photographs were taken under an inverted microscope. The average numbers of ES-2 cells in five random fields (100×) per well were counted. The inhibition rate of ES-2 cells invasion was calculated as follows: (A − B)/A × 100%, A means the number of ES-2 cells in the control group, and B means the number of ES-2 cells in the treated group. The experiments were repeated three times.

SMILES | IC50 (porcine APN) [nM] | melting point [°C] | also measured
NC(=O)N1N=C(c2cccc(Br)c2)CC1c1ccccc1OCC(=O)NO (stereo not shown) [2b] | 260 ± 50 | 164.4 to 166.4 | 
NC(=O)N1N=C(c2ccc(Br)cc2)CC1c1ccccc1OCC(=O)NO (stereo not shown) [2c] | 2100 ± 200 | 190.2 to 192.2 | 
COc1ccccc1C1=NN(C(N)=O)C(c2ccccc2OCC(=O)NO)C1 (stereo not shown) [2d] | 270 ± 10 | 198.4 to 200.2 | 
COc1cccc(C2=NN(C(N)=O)C(c3ccccc3OCC(=O)NO)C2)c1 (stereo not shown) [2e] | 320 ± 30 | 208.5 to 210.3 | 
COc1ccc(C2=NN(C(N)=O)C(c3ccccc3OCC(=O)NO)C2)cc1 (stereo not shown) [2f] | 12500 ± 800 | 168.4 to 170.2 | 
Cc1ccccc1C1=NN(C(N)=O)C(c2ccccc2OCC(=O)NO)C1 (stereo not shown) [2g] | 110 ± 10 | 144.5 to 146.2 | 
NC(=O)N1N=C(c2ccccc2F)CC1c1ccccc1OCC(=O)NO (stereo not shown) [2h] | 150 ± 10 | 124.4 to 126.1 | 
NC(=O)N1N=C(c2c(F)cccc2F)CC1c1ccccc1OCC(=O)NO (stereo not shown) [2j] | 120 ± 10 | 186.2 to 188.2 | 
NC(=O)N1N=C(c2ccc(Cl)cc2Cl)CC1c1ccccc1OCC(=O)NO (stereo not shown) [2l] | 420 ± 30 | 196.3 to 198.2 | 
NC(=O)N1N=C(c2cccc3ccccc23)CC1c1ccccc1OCC(=O)NO (stereo not shown) [2m] | 210 ± 40 | 204.2 to 206.2 | fold more potent against APN than 2n (porcine APN; IC50 ratio vs 2n): over 10 fold
NC(=O)N1N=C(c2ccc3ccccc3c2)CC1c1ccccc1OCC(=O)NO (stereo not shown) [2n] | 2500 ± 100 | 166.2 to 168.2 | 
CC(C)C[C@H](NC(=O)[C@@H](O)[C@H](N)Cc1ccccc1)C(=O)O [Bestatin, reference compound] |  |  | body weight loss [1]: no significant body weight loss; IC50 (HepG2): > 500000 nM; IC50 (PLC/PRF/5): > 500000 nM; IC50 (ES-2): > 500000 nM; IC50 (PC-3): > 500000 nM; IC50 (K562): > 500000 nM; IC50 (U937): > 500000 nM
NC(=O)N1N=C(c2ccccc2)CC1c1ccccc1OCC(=O)NO (stereo not shown) [compound 1, reference compound] | 150 ± 20 |  | 
NC(=O)N1N=C(c2ccccc2Br)CC1c1ccccc1OCC(=O)NO (stereo not shown) [compound 2a, 3-(2-Bromophenyl)-5-(2-(2-(hydroxyamino)-2-oxoethoxy)phenyl)-4,5-dihydro-1H-pyrazole-1-carboxamide] | 150 ± 30 | 168.4 to 170.2 | 
NC(=O)N1N=C(c2ccccc2Cl)CC1c1ccccc1OCC(=O)NO (stereo not shown) [compound 2i] | 100 ± 10 | 172.2 to 174.1 | 
NC(=O)N1N=C(c2c(Cl)cccc2Cl)CC1c1ccccc1OCC(=O)NO (stereo not shown) [compound 2k] | 64 ± 10 | 200.2 to 202.2 | in vivo anti-metastasis effect (mice H22 hepatoma cells): effectively prevent the pulmonary metastasis; body weight loss [1]: no significant body weight loss; fold more potent against APN than bestatin (porcine APN; IC50 ratio vs bestatin): over 140 fold; fold more potent against APN than compound 1 (porcine APN; IC50 ratio vs compound 1): > 2 fold; anti-invasion activity at 10 μM compared with 100 μM of bestatin (ES-2 cells invasion; ES-2 cells, 10 μM of 2k vs 100 μM bestatin): comparable, if not better; anti-invasion effect at 100 μM compared with bestatin (ES-2 cells invasion; ES-2 cells, both at 100 μM, P < 0.05): significantly better than that of bestatin; inhibition of ES-2 cells invasion (ES-2 cells invasion; transwell with matrigel, 8 h, several concentrations): inhibit the ES-2 cells invasion in a concentration dependent manner; IC50 (HepG2): 101000 ± 4900 nM; IC50 (PLC/PRF/5): 106000 ± 4700 nM; IC50 (ES-2): 141000 ± 3800 nM; IC50 (PC-3): 56100 ± 3100 nM; IC50 (K562): 15600 ± 2200 nM; IC50 (U937): 49200 ± 3800 nM
COc1ccccc1C1=NN(C(N)=O)C(c2ccccc2OCC(=O)NN)C1 (stereo not shown) [compound 2o, 5-(2-(2-Hydrazinyl-2-oxoethoxy)phenyl)-3-(2-methoxyphenyl)-4,5-dihydro-1H-pyrazole-1-carboxamide] | 30200 ± 1900 | 156.6 to 158.2 | 
